Measured values as given in patent US20130005747A1, “METHOD FOR SELECTING A CANCER THERAPY” (Cyclacel Limited, priority 2010, published 2013).

What was measured:
Experiment in all cases: Fractional growth, 72 h seliciclib
Assay type in all cases: cell-based, human
HDQ-P1 = HDQ-P1 (Breast), 15 μM seliciclib
Text: (§1) A total of 270 human cancer cell lines from diverse cancer histopathologic types were investigated.

T.T = T.T (Esophagus), 15 μM seliciclib
Text: as §1

MS751 = MS751 (Cervix), 15 μM seliciclib
Text: as §1

EBC-1 = EBC-1 (Lung: NSCLC), 15 μM seliciclib
Text: as §1

RERF-GC-1B = RERF-GC-1B (Stomach), 15 μM seliciclib
Text: as §1

LS174T = LS174T (Intestine), 15 μM seliciclib
Text: as §1

AU565 = AU565 (Breast), 15 μM seliciclib
Text: as §1

PCI-15A = PCI-15A (Head & Neck), 15 μM seliciclib
Text: as §1

Calu-3 = Calu-3 (Lung: NSCLC), 15 μM seliciclib
Text: as §1

SKG-IIIb = SKG-IIIb (Cervix), 15 μM seliciclib
Text: as §1

KATO III = KATO III (Stomach), 15 μM seliciclib
Text: as §1

SAS = SAS (Head & Neck), 15 μM seliciclib
Text: as §1

PANC-1 = PANC-1 (Pancreas), 15 μM seliciclib
Text: as §1

SW 900 = SW 900 (Lung: NSCLC), 15 μM seliciclib
Text: as §1

BEN = BEN (Lung: NSCLC), 15 μM seliciclib
Text: as §1

T98G = T98G (Brain), 15 μM seliciclib
Text: as §1

Hs 766T = Hs 766T (Pancreas), 15 μM seliciclib
Text: as §1

PCI-15 = PCI-15 (Head & Neck), 15 μM seliciclib
Text: as §1

Detroit 562 = Detroit 562 (Head & Neck), 15 μM seliciclib
Text: as §1

PCI-4B = PCI-4B (Head & Neck), 15 μM seliciclib
Text: as §1

XPA-4 = XPA-4 (Pancreas), 15 μM seliciclib
Text: as §1

NCI-H1573 = NCI-H1573 (Lung: NSCLC), 15 μM seliciclib
Text: as §1

JHH-2 = JHH-2 (Liver), 15 μM seliciclib
Text: as §1

RERF-LC-Sq1 = RERF-LC-Sq1 (Lung: NSCLC), 15 μM seliciclib
Text: as §1

BPH-1 = BPH-1 (Prostate), 15 μM seliciclib
Text: as §1

786-O = 786-O (Kidney), 15 μM seliciclib
Text: as §1

C-4 II = C-4 II (Cervix), 15 μM seliciclib
Text: as §1

SCaBER = SCaBER (Bladder), 15 μM seliciclib
Text: as §1

NCI-H1651 = NCI-H1651 (Lung: NSCLC), 15 μM seliciclib
Text: as §1

Panc 03.27 = Panc 03.27 (Pancreas), 15 μM seliciclib
Text: as §1

NCI-H1781 = NCI-H1781 (Lung: NSCLC), 15 μM seliciclib
Text: as §1

SBC-5 = SBC-5 (Lung), 15 μM seliciclib
Text: as §1

MKN1 = MKN1 (Stomach), 15 μM seliciclib
Text: as §1

CHSA8926 = CHSA8926 (Bone), 15 μM seliciclib
Text: as §1

BHY = BHY (Head & Neck), 15 μM seliciclib
Text: as §1

DoTc2 4510 = DoTc2 4510 (Cervix), 15 μM seliciclib
Text: as §1

RT112/84 = RT112/84 (Bladder), 15 μM seliciclib
Text: as §1

`CC[C@H](CO)Nc1nc(NCc2ccccc2)c2ncn(C(C)C)c2n1` [seliciclib, roscovitine] was tested, and the “Fractional Growth” value (HDQ-P1) was 0.8137, the “Fractional Growth” value (T.T) was 0.1271 and the “Fractional Growth” value (MS751) was 0.3573. The “Fractional Growth” value (EBC-1) was 0.3971, the “Fractional Growth” value (RERF-GC-1B) was 0.6411 and the “Fractional Growth” value (LS174T) was 0.3713. The “Fractional Growth” value (AU565) was 0.4762, the “Fractional Growth” value (PCI-15A) was 0.4965 and the “Fractional Growth” value (Calu-3) was 0.6463. The “Fractional Growth” value (SKG-IIIb) was 0.6636, the “Fractional Growth” value (KATO III) was 0.4299 and the “Fractional Growth” value (SAS) was 0.3207. For the same compound, the “Fractional Growth” value (PANC-1) was 0.5761, the “Fractional Growth” value (SW 900) was 0.5842 and the “Fractional Growth” value (BEN) was 0.4149. The “Fractional Growth” value (T98G) was 0.4404, the “Fractional Growth” value (Hs 766T) was 0.4284 and the “Fractional Growth” value (PCI-15) was 0.2641. For the same compound, the “Fractional Growth” value (Detroit 562) was 0.1846, the “Fractional Growth” value (PCI-4B) was 0.4686 and the “Fractional Growth” value (XPA-4) was 0.3444. The “Fractional Growth” value (NCI-H1573) was 0.5485, the “Fractional Growth” value (JHH-2) was 0.635 and the “Fractional Growth” value (RERF-LC-Sq1) was 0.6428. For the same compound, the “Fractional Growth” value (BPH-1) was 0.6039, the “Fractional Growth” value (786-O) was 0.3998 and the “Fractional Growth” value (C-4 II) was 0.7489. For the same compound, the “Fractional Growth” value (SCaBER) was 0.5642, the “Fractional Growth” value (NCI-H1651) was 0.6289 and the “Fractional Growth” value (Panc 03.27) was 0.5632. For the same compound, the “Fractional Growth” value (NCI-H1781) was 0.6273, the “Fractional Growth” value (SBC-5) was 0.7399 and the “Fractional Growth” value (MKN1) was 0.3594. The “Fractional Growth” value (CHSA8926) was 0.674, the “Fractional Growth” value (BHY) was 0.5602 and the “Fractional Growth” value (DoTc2 4510) was 0.6205. The “Fractional Growth” value (RT112/84) was 0.318.
